{
  "source": "paper PMC5584945",
  "about": "“Evaluation of robenidine analog NCL195 as a novel broad-spectrum antibacterial agent” (PLoS ONE, 2017)",
  "key": {"S. pneumoniae D39 [1]": {"test_system": "S. pneumoniae D39", "experiment": "Minimum bactericidal concentration (MBC)", "type": "cell-based", "conditions": "Streptococcus pneumoniae, 99.9% colony count reduction, read-out: MBC"}, "S. pneumoniae D39 [2]": {"test_system": "S. pneumoniae D39", "experiment": "Membrane potential, DiOC2(3) fluorescence", "type": "cell-based, Streptococcus pneumoniae", "conditions": "16 μg/ml, pre-incubated 5 min; versus untreated and ampicillin", "protocol": "To further examine the mechanism underlying the perturbation of the cell membrane of S. pneumoniae or S. aureus by the NCL compounds, the membrane potential of the cells was measured by fluorescence spectrometry using (DiOC2(3), essentially as described previously. Briefly, […] cells from an overnight HBA plate were grown in Todd-Hewitt broth supplemented with 1% yeast extract (THY) at 37°C, 5% CO2 until A600 nm = 0.5. […] The cuvette was then placed in a LS 55 Fluorescence Spectrometer (PerkinElmer) set at Ex. 488 nm/Em. 620 nm, with excitation and emission slit widths at 5 nm and 7 nm, respectively). […] All assays were performed at least twice."}, "[3]": {"test_system": "panel of mammalian cell lines (Caco-2, HEL 299, Hep G2, MDBK, MCF7)", "experiment": "In vitro cytotoxicity, WST-1, all cell lines tested", "type": "cell-based", "conditions": "lower bound over all the cell lines tested", "description": "In order to ensure minimal off target mammalian cell cytotoxicity, we assayed NCL812, NCL195 and NCL219 for in vitro cytotoxicity using a panel of adherent mammalian cell lines: Caco-2 (human colorectal adenocarcinoma cell line), HEL 299 (non-cancerous human lung fibroblast cell line), Hep G2 (human hepatocellular carcinoma cell line), MDBK (normal bovine kidney cell line) and MCF7 (human mammary gland adenocarcinoma cell line). Cell lines were maintained in Dulbecco’s Modified Eagle’s Medium (DMEM; […] After 24 h incubation, media was removed, washed once with medium without antibiotics and fresh medium supplemented with 10% (vol/vol) FBS was added. […] Following exposure for 24 h, WST-1 reagent was added to each well at a final concentration of 10%. […] The IC50 value for each compound against each cell line was determined via non-linear regression (three parameters) using GraphPad Prism v6 software. The robustness of assays was confirmed with selected cell lines (Hep G2 and MDBK) seeded onto a 96–well Microwell Nunclon Delta Surface plate (Thermo Scientific Nunc; Cat No: 136101) at 5 × 10^4 cells per well."}, "[4]": {"test_system": "vancomycin-resistant enterococci (VRE)", "experiment": "MIC, broth micro-dilution (CLSI)", "type": "cell-based, enterococci (porcine isolates)", "conditions": "for MIC50 / MIC90 / MIC: Enterococcus, VRE; for MIC50 / MIC90: S3 Table isolates"}},
  "data": [
    {"compound": "C/C(=N\\NC(=N)N/N=C(\\C)c1ccc(C(C)(C)C)cc1)c1ccc(C(C)(C)C)cc1", "note": "[NCL219, (E)-N'-((E)-1-(4-(tert-butyl)phenyl)ethylidene)-2-(1-(4-(tert-butyl)phenyl)ethylidene)hydrazine-1-carboximidhydrazide]", "values": [
      {"measurement": "MBC", "setting": "S. pneumoniae D39 [1]", "value": 4, "unit": "µg/mL"},
      {"measurement": "Effect on generated membrane potential", "setting": "S. pneumoniae D39 [2]", "value": "large reduction in the magnitude of the generated membrane potential"},
      {"measurement": "IC50", "setting": "[3]", "value": "> 7", "unit": "µg/mL"},
      {"measurement": "Fold increase of MIC range in the presence of 10% FBS", "setting": "[4]; 10% FBS versus no FBS", "value": 8, "unit": "fold"},
      {"measurement": "MIC range", "setting": "[4]; 20 isolates", "value": "1 to 2", "unit": "µg/mL"},
      {"measurement": "MIC50", "setting": "[4]; 10% FBS", "value": 8, "unit": "µg/mL"},
      {"measurement": "MIC90", "setting": "[4]; 10% FBS", "value": 16, "unit": "µg/mL"},
      {"measurement": "MIC50", "setting": "[4]; absence of FBS", "value": 2, "unit": "µg/mL"},
      {"measurement": "MIC90", "setting": "[4]; absence of FBS", "value": 2, "unit": "µg/mL"},
      {"measurement": "MIC", "setting": "[4]; VRE 1 (49 FR), 10% FBS", "value": 16, "unit": "µg/mL"},
      {"measurement": "MIC", "setting": "[4]; VRE 1 (49 FR), absence of FBS", "value": 2, "unit": "µg/mL"},
      {"measurement": "MIC", "setting": "[4]; VRE 2 (53 FR), 10% FBS", "value": 8, "unit": "µg/mL"},
      {"measurement": "MIC", "setting": "[4]; VRE 2 (53 FR), absence of FBS", "value": 2, "unit": "µg/mL"},
      {"measurement": "MIC", "setting": "[4]; VRE 3 (55 FR), 10% FBS", "value": 8, "unit": "µg/mL"},
      {"measurement": "MIC", "setting": "[4]; VRE 3 (55 FR), absence of FBS", "value": 2, "unit": "µg/mL"},
      {"measurement": "MIC", "setting": "[4]; VRE 4 (57 FR), 10% FBS", "value": 8, "unit": "µg/mL"},
      {"measurement": "MIC", "setting": "[4]; VRE 4 (57 FR), absence of FBS", "value": 2, "unit": "µg/mL"},
      {"measurement": "MIC", "setting": "[4]; VRE5 (58 FR), 10% FBS", "value": 8, "unit": "µg/mL"},
      {"measurement": "MIC", "setting": "[4]; VRE5 (58 FR), absence of FBS", "value": 2, "unit": "µg/mL"},
      {"measurement": "MIC", "setting": "[4]; VRE 6 (59 FR), 10% FBS", "value": 8, "unit": "µg/mL"},
      {"measurement": "MIC", "setting": "[4]; VRE 6 (59 FR), absence of FBS", "value": 2, "unit": "µg/mL"},
      {"measurement": "MIC", "setting": "[4]; VRE 7 (270 G), 10% FBS", "value": 16, "unit": "µg/mL"},
      {"measurement": "MIC", "setting": "[4]; VRE 7 (270 G), absence of FBS", "value": 2, "unit": "µg/mL"},
      {"measurement": "MIC", "setting": "[4]; VRE 8 (277 G), 10% FBS", "value": 8, "unit": "µg/mL"},
      {"measurement": "MIC", "setting": "[4]; VRE 8 (277 G), absence of FBS", "value": 1, "unit": "µg/mL"},
      {"measurement": "MIC", "setting": "[4]; VRE 9 (61 FR), 10% FBS", "value": 8, "unit": "µg/mL"},
      {"measurement": "MIC", "setting": "[4]; VRE 9 (61 FR), absence of FBS", "value": 1, "unit": "µg/mL"},
      {"measurement": "MIC", "setting": "[4]; VRE 10 (62 FR), 10% FBS", "value": 16, "unit": "µg/mL"},
      {"measurement": "MIC", "setting": "[4]; VRE 10 (62 FR), absence of FBS", "value": 1, "unit": "µg/mL"},
      {"measurement": "MIC", "setting": "[4]; VRE 11 (284 G), 10% FBS", "value": 8, "unit": "µg/mL"},
      {"measurement": "MIC", "setting": "[4]; VRE 11 (284 G), absence of FBS", "value": 2, "unit": "µg/mL"},
      {"measurement": "MIC", "setting": "[4]; VRE 12 (290 G), 10% FBS", "value": 8, "unit": "µg/mL"},
      {"measurement": "MIC", "setting": "[4]; VRE 12 (290 G), absence of FBS", "value": 2, "unit": "µg/mL"},
      {"measurement": "MIC", "setting": "[4]; VRE 13 (251 G), 10% FBS", "value": 8, "unit": "µg/mL"},
      {"measurement": "MIC", "setting": "[4]; VRE 13 (251 G), absence of FBS", "value": 2, "unit": "µg/mL"},
      {"measurement": "MIC", "setting": "[4]; VRE 14 (252 G), 10% FBS", "value": 8, "unit": "µg/mL"},
      {"measurement": "MIC", "setting": "[4]; VRE 14 (252 G), absence of FBS", "value": 2, "unit": "µg/mL"},
      {"measurement": "MIC", "setting": "[4]; VRE 15 (63 FR), 10% FBS", "value": 8, "unit": "µg/mL"},
      {"measurement": "MIC", "setting": "[4]; VRE 15 (63 FR), absence of FBS", "value": 2, "unit": "µg/mL"},
      {"measurement": "MIC", "setting": "[4]; VRE 16 (60 FR), 10% FBS", "value": 8, "unit": "µg/mL"},
      {"measurement": "MIC", "setting": "[4]; VRE 16 (60 FR), absence of FBS", "value": 2, "unit": "µg/mL"},
      {"measurement": "MIC", "setting": "[4]; VRE 17 (45 FR), 10% FBS", "value": 8, "unit": "µg/mL"},
      {"measurement": "MIC", "setting": "[4]; VRE 17 (45 FR), absence of FBS", "value": 2, "unit": "µg/mL"},
      {"measurement": "MIC", "setting": "[4]; VRE 18 (69 W), 10% FBS", "value": 8, "unit": "µg/mL"},
      {"measurement": "MIC", "setting": "[4]; VRE 18 (69 W), absence of FBS", "value": 2, "unit": "µg/mL"},
      {"measurement": "MIC", "setting": "[4]; VRE 19 (70 W), 10% FBS", "value": 8, "unit": "µg/mL"},
      {"measurement": "MIC", "setting": "[4]; VRE 19 (70 W), absence of FBS", "value": 2, "unit": "µg/mL"},
      {"measurement": "MIC", "setting": "[4]; VRE 20 (78 W), 10% FBS", "value": 8, "unit": "µg/mL"},
      {"measurement": "MIC", "setting": "[4]; VRE 20 (78 W), absence of FBS", "value": 2, "unit": "µg/mL"}
    ]}
  ]
}
